As usually defined, the pIC50 is the negative decadic logarithm of the IC50, by convention in mol/L.

pIC50: −log10 of the molar value.

The target of the assay is Human cGAS amino acids 155-522 (Homo sapiens (Human), UniProt Q8N884). The assay is described as follows: cGAS biochemical activity assay (ATP remaining, Kinase-Glo Max luminescence). Particulars: human cGAS 155-522, ATP remaining (Kinase-Glo Max); read-out: cGAS IC50. For orientation: Kinase-Glo measures the ATP left after a reaction by luminescence.
Sequence of Human cGAS amino acids 155-522 (Q8N884 157-522): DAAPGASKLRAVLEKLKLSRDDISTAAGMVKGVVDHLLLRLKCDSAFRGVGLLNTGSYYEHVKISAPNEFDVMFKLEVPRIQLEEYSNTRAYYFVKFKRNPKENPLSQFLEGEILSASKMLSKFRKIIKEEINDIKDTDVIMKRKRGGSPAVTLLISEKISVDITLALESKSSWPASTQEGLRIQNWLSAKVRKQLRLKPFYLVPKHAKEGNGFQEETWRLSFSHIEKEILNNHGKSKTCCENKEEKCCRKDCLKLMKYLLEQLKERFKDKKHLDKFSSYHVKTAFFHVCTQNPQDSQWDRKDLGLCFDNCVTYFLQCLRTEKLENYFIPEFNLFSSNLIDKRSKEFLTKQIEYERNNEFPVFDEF
Take `Cc1[nH]c2c(-c3ccccc3)c(C(F)(F)F)nn2c(=O)c1CC(=O)Nc1ccccc1` [Compound B1005]: the pIC50 was 3.60 to 4.70.
Turning to `Cc1[nH]c2c(-c3ccccc3)c(C(F)(F)F)nn2c(=O)c1CCNC(=O)c1ccccc1` [Compound B1014, N-(2-(5-methyl-7-oxo-3-phenyl-2-(trifluoromethyl)-4,7-dihydropyrazolo[1,5-a]pyrimidin-6-yl)ethyl)benzamide], the pIC50 is 3.60 to 4.70.
On to `Cc1[nH]c2c(-c3ccccc3)c(C(F)(F)F)nn2c(=O)c1C(=O)NC1CCN(C)CC1` [Compound A1026, 5-methyl-N-(1-methylpiperidin-4-yl)-7-oxo-3-phenyl-2-(trifluoromethyl)-4,7-dihydropyrazolo[1,5-a]pyrimidine-6-carboxamide], for which the pIC50 is 3.60 to 4.70.
Under `Cc1[nH]c2c(-c3ccccc3)c(C(F)(F)F)nn2c(=O)c1-c1nnc(N)o1` [Compound D1075, 6-(5-amino-1,3,4-oxadiazol-2-yl)-5-methyl-3-phenyl-2-(trifluoromethyl)pyrazolo[1,5-a]pyrimidin-7(4H)-one] stands 3.60 to 4.70; under `Cc1[nH]c2c(-c3ccccc3)c(C(F)(F)F)nn2c(=O)c1C(=O)NC1CCOCC1` [Compound A1025, 5-methyl-7-oxo-3-phenyl-N-(tetrahydro-2H-pyran-4-yl)-2-(trifluoromethyl)-4,7-dihydropyrazolo[1,5-a]pyrimidine-6-carboxamide], 3.60 to 4.70.
The same measure for `COc1cccc2oc(-c3c(C(=O)N4CCCCC4)[nH]c4c(-c5ccccc5)c(C(F)(F)F)nn4c3=O)nc12` [Compound C1186, 6-(4-methoxybenzo[d]oxazol-2-yl)-3-phenyl-5-(piperidine-1-carbonyl)-2-(trifluoromethyl)pyrazolo[1,5-a]pyrimidin-7(4H)-one]: 3.60 to 4.70; for `Cc1[nH]c2c(-c3ccccc3)c(C(F)(F)F)nn2c(=O)c1-c1nnc(C2COCCN2C(=O)OCc2ccccc2)o1` (centres unmarked) [Compound D1039, benzyl 3-(5-(5-methyl-7-oxo-3-phenyl-2-(trifluoromethyl)-4,7-dihydropyrazolo[1,5-a]pyrimidin-6-yl)-1,3,4-oxadiazol-2-yl)morpholine-4-carboxylate]: 3.60 to 4.70.
As to `COc1cccc2oc(-c3c(COC4CCN(C)C4=O)[nH]c4c(-c5ccccc5)c(C(F)(F)F)nn4c3=O)nc12` (centres unmarked) [Compound C1225, 6-(4-methoxybenzo[d]oxazol-2-yl)-5-(((1-methyl-2-oxopyrrolidin-3-yl)oxy)methyl)-3-phenyl-2-(trifluoromethyl)pyrazolo[1,5-a]pyrimidin-7(4H)-one], the pIC50 is over 4.70.
As to `COc1cccc2oc(-c3c(C)[nH]c4c(-c5cccnc5)c(C(F)(F)F)nn4c3=O)nc12` [Compound C1129, 6-(4-methoxybenzo[d]oxazol-2-yl)-5-methyl-3-(pyridin-3-yl)-2-(trifluoromethyl)pyrazolo[1,5-a]pyrimidin-7(4H)-one], the pIC50 is 3.60 to 4.70.
For `Cc1[nH]c2c(-c3ccccc3)c(C(F)(F)F)nn2c(=O)c1CC(=O)N1CCOCC1` [Compound B1002, 5-methyl-6-(2-morpholino-2-oxoethyl)-3-phenyl-2-(trifluoromethyl)pyrazolo[1,5-a]pyrimidin-7(4H)-one], the pIC50 is under 3.60.
The same measure for `Cc1[nH]c2c(-c3ccccc3)c(C(F)(F)F)nn2c(=O)c1C(=O)Nc1ccccc1NS(C)(=O)=O` [Compound A1022, 5-methyl-N-(2-(methylsulfonamido)phenyl)-7-oxo-3-phenyl-2-(trifluoromethyl)-4,7-dihydropyrazolo[1,5-a]pyrimidine-6-carboxamide]: over 4.70; for `COc1cccc2oc(-c3c(OCCN(C)C)[nH]c4c(-c5ccccc5)c(C(F)(F)F)nn4c3=O)nc12` [Compound C1067, 5-(2-(dimethylamino)ethoxy)-6-(4-methoxybenzo[d]oxazol-2-yl)-3-phenyl-2-(trifluoromethyl)pyrazolo[1,5-a]pyrimidin-7(4H)-one]: under 3.60; for `Cc1[nH]c2c(-c3ccccc3)c(C(F)(F)F)nn2c(=O)c1-c1nnc(C(N)=O)o1` [Compound D1066, 5-(5-methyl-7-oxo-3-phenyl-2-(trifluoromethyl)-4,7-dihydropyrazolo[1,5-a]pyrimidin-6-yl)-1,3,4-oxadiazole-2-carboxamide]: over 4.70.
The same measure for `Cc1[nH]c2c(-c3ccccc3)c(C(F)(F)F)nn2c(=O)c1-c1nnc(N2CCS(=O)(=O)CC2)o1` [Compound D1068, 6-(5-(1,1-dioxidothiomorpholino)-1,3,4-oxadiazol-2-yl)-5-methyl-3-phenyl-2-(trifluoromethyl)pyrazolo[1,5-a]pyrimidin-7(4H)-one]: 3.60 to 4.70; for `Cc1[nH]c2c(-c3ccccc3)c(C(F)(F)F)nn2c(=O)c1CC(=O)Nc1ccccc1N` [Compound B1001, N-(2-aminophenyl)-2-(5-methyl-7-oxo-3-phenyl-2-(trifluoromethyl)-4,7-dihydropyrazolo[1,5-a]pyrimidin-6-yl)acetamide]: 3.60 to 4.70; for `Cc1[nH]c2c(-c3ccccc3)c(C(F)(F)F)nn2c(=O)c1-c1nnc(N2CCN(C)CC2)o1` [Compound D1058, 5-methyl-6-(5-(4-methylpiperazin-1-yl)-1,3,4-oxadiazol-2-yl)-3-phenyl-2-(trifluoromethyl)pyrazolo[1,5-a]pyrimidin-7(4H)-one]: 3.60 to 4.70.
On to `Cc1[nH]c2c(-c3ccccc3)c(C(F)(F)F)nn2c(=O)c1C(=O)N[C@H]1CCN(C(=O)OC(C)(C)C)C1` [Compound A1034, tert-butyl (S)-3-(5-methyl-7-oxo-3-phenyl-2-(trifluoromethyl)-4,7-dihydropyrazolo[1,5-a]pyrimidine-6-carboxamido)pyrrolidine-1-carboxylate], for which the pIC50 is under 3.60.
Turning to `Cc1[nH]c2c(-c3ccccc3)c(C(F)(F)F)nn2c(=O)c1C(=O)Nc1cnccn1` [Compound A1024, 5-methyl-7-oxo-3-phenyl-N-(pyrazin-2-yl)-2-(trifluoromethyl)-4,7-dihydropyrazolo[1,5-a]pyrimidine-6-carboxamide], the pIC50 is over 4.70.
Under `Cc1[nH]c2c(-c3ccccc3)c(C(F)(F)F)nn2c(=O)c1C(=O)Nc1cccc(OCc2ccccc2)c1` [Compound A1086, N-(3-(benzyloxy)phenyl)-5-methyl-7-oxo-3-phenyl-2-(trifluoromethyl)-4,7-dihydropyrazolo[1,5-a]pyrimidine-6-carboxamide] stands over 4.70; under `COc1cccc2c1nc(-c1c(C)[nH]c3c(-c4ccccc4)c(C(F)(F)F)nn3c1=O)n2CC1CC1` [Compound C1189, 6-(1-(cyclopropylmethyl)-4-methoxy-1H-benzo[d]imidazol-2-yl)-5-methyl-3-phenyl-2-(trifluoromethyl)pyrazolo[1,5-a]pyrimidin-7(4H)-one], 3.60 to 4.70.
Regarding `COc1cccc(NC(=O)c2c(C)[nH]c3c(-c4ccccc4)c(C(F)(F)F)nn3c2=O)c1Br` [Compound A1131, N-(2-bromo-3-methoxyphenyl)-5-methyl-7-oxo-3-phenyl-2-(trifluoromethyl)-4,7-dihydropyrazolo[1,5-a]pyrimidine-6-carboxamide], the pIC50 is 3.60 to 4.70.
On to `Cc1[nH]c2c(-c3ccccc3)c(C(F)(F)F)nn2c(=O)c1C(=O)Nc1ccc(S(C)(=O)=O)cn1` [Compound A1108, 5-methyl-N-(5-(methylsulfonyl)pyridin-2-yl)-7-oxo-3-phenyl-2-(trifluoromethyl)-4,7-dihydropyrazolo[1,5-a]pyrimidine-6-carboxamide], for which the pIC50 was 3.60 to 4.70.
Under `COc1cccc2oc(-c3c(C(=O)N4CCC[C@@H]4CO)[nH]c4c(-c5ccccc5)c(C(F)(F)F)nn4c3=O)nc12` [Compound C1207, (R)-5-(2-(hydroxymethyl)pyrrolidine-1-carbonyl)-6-(4-methoxybenzo[d]oxazol-2-yl)-3-phenyl-2-(trifluoromethyl)pyrazolo[1,5-a]pyrimidin-7(4H)-one] stands 3.60 to 4.70; under `COc1cccc2oc(-c3c(C4CCC(C(=O)O)CC4)[nH]c4c(-c5ccccc5)c(C(F)(F)F)nn4c3=O)nc12` (single isomer, unassigned) [Compound C1238, 4-(6-(4-methoxybenzo[d]oxazol-2-yl)-7-oxo-3-phenyl-2-(trifluoromethyl)-4,7-dihydropyrazolo[1,5-a]pyrimidin-5-yl)cyclohexane-1-carboxylic acid], 3.60 to 4.70; under `Cc1[nH]c2c(-c3ccccc3)c(C(F)(F)F)nn2c(=O)c1-c1nnc(-c2ccccc2N)o1` [Compound D1082, 6-(5-(2-aminophenyl)-1,3,4-oxadiazol-2-yl)-5-methyl-3-phenyl-2-(trifluoromethyl)pyrazolo[1,5-a]pyrimidin-7(4H)-one], 3.60 to 4.70.
With `Cc1[nH]c2c(C3CCCC3)c(C(F)(F)F)nn2c(=O)c1-c1nnc(C2CCCCC2)o1` [Compound D1017, 6-(5-cyclohexyl-1,3,4-oxadiazol-2-yl)-3-cyclopentyl-5-methyl-2-(trifluoromethyl)pyrazolo[1,5-a]pyrimidin-7(4H)-one], the pIC50 is under 3.60.
Take `Cc1[nH]c2c(-c3ccccc3)c(C(F)(F)F)nn2c(=O)c1C(=O)Nc1ccc(Cl)cc1` [Compound A1016, N-(4-chlorophenyl)-5-methyl-7-oxo-3-phenyl-2-(trifluoromethyl)-4,7-dihydropyrazolo[1,5-a]pyrimidine-6-carboxamide]: the pIC50 is 3.60 to 4.70.
The same measure for `COC1CCN(c2nnc(-c3c(C)[nH]c4c(-c5ccccc5)c(C(F)(F)F)nn4c3=O)o2)C1` (centres unmarked) [Compound D1037, 6-(5-(3-methoxypyrrolidin-1-yl)-1,3,4-oxadiazol-2-yl)-5-methyl-3-phenyl-2-(trifluoromethyl)pyrazolo[1,5-a]pyrimidin-7(4H)-one]: over 4.70; for `Cc1[nH]c2c(-c3ccccc3)c(C(F)(F)F)nn2c(=O)c1C(=O)Nc1ccccc1N1CCCCC1` [Compound A1055, 5-methyl-7-oxo-3-phenyl-N-(2-(piperidin-1-yl)phenyl)-2-(trifluoromethyl)-4,7-dihydropyrazolo[1,5-a]pyrimidine-6-carboxamide]: 3.60 to 4.70.

For the origin of these results see US10738056B2 (Aduro BioTech, Inc., priority 2017, dated 2020).
